Several values for one entry are separate records, joined by “and”; a condition that tells them apart may be missing. Equal entries are not always repeated. Where two headings read alike, the source gives them in different places.
Legend:
[1] = biological target: T1, 30S-bound IF2 (30S IC) (Escherichia coli, UniProt P0A705); experiment: ppGpp (or GDP) to GTP competitive assay for 30S IC formation by MST; assay type: binding
T1 construct: 6xHis (N); made in house
Procedure: MST was calculated from the respective fluorescence time dependencies (S3 Fig). […] Symbols as in (B). […] Continuous lines indicate nonlinear regression fittings with quadratic (B and E) or same-site competition (G) functions. Three measurements were performed; mean and standard deviations are plotted (S1 Data).
[…] Symbols are as indicated, 3 measurements were performed, and mean and standard deviation are plotted (S1 Data). Continuous lines show nonlinear regression fittings with a same-site inhibition model. […] (PDF) Click here for additional data file.

[2] = biological target: T2, IF2 (Escherichia coli, UniProt P0A705); experiment: IF2-Bpy-tRNAi-GNP ternary complex formation by MST; assay type: binding; details: S2A Fig
T2 construct: 6xHis (N); made in house
T2 sequence (P0A705 whole entry): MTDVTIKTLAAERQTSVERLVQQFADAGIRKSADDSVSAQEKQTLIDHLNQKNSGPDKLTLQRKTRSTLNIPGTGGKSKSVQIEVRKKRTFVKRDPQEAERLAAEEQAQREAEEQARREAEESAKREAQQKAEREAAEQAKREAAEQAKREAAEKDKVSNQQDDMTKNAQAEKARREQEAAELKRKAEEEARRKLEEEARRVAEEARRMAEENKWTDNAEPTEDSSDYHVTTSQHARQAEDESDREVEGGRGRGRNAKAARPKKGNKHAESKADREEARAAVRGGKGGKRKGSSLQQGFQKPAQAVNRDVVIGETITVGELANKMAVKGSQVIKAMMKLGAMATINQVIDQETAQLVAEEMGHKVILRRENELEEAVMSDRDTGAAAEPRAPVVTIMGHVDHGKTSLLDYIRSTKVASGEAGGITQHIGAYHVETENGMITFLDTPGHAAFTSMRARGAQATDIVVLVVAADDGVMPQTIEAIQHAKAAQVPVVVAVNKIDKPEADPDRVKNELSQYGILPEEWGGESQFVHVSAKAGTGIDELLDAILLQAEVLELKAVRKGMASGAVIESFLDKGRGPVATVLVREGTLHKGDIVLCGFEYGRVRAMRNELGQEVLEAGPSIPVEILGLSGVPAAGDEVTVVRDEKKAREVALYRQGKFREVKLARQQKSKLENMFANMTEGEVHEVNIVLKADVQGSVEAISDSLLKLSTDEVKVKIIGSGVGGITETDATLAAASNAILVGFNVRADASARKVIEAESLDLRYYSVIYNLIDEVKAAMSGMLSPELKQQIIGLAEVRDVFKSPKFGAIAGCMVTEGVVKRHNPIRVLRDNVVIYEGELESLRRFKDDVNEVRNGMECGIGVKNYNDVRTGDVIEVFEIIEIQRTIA
Procedure: Supplementary file pbio.3000593.s002.pdf: S2 Fig IF2-Bpy-tRNAi complex formation as a function of guanosine nucleotides. (A) IF2 concentration dependencies for Bpy-tRNAi binding in the presence of 0.5 mM of the indicated guanosine nucleotides to build IF2-tRNA-GNP ternary complexes (TCs). […] Three to five measurements were performed; mean and standard deviation are plotted (S1 Data). […] (PDF) Click here for additional data file.

T1 sequence (P0A705 whole entry, looked up): as the sequence (P0A705 whole entry) above

Nc1nc2c(ncn2[C@@H]2O[C@H](COP(=O)(O)OP(=O)(O)O)[C@@H](OP(=O)(O)OP(=O)(O)O)[C@H]2O)c(=O)[nH]1 [ppGpp]
MST Replicates (a.u.) ([1]; mMF1, Log [ppGpp] 1.49): 971.54 a.u. and 972.59 a.u. and 972.70 a.u. | MST Average ([1]; mMF1, Log [ppGpp] 1.80): 959.11 a.u. | MST Replicates (a.u.) ([1]; mMF1, Log [ppGpp] 1.80): 958.37 a.u. and 959.24 a.u. and 959.71 a.u. | MST Average ([1]; mMF1, Log [ppGpp] 2.10): 947.40 a.u. | MST Replicates (a.u.) ([1]; mMF1, Log [ppGpp] 2.10): 946.23 a.u. and 947.67 a.u. and 948.30 a.u. | MST Average ([1]; mMF1, Log [ppGpp] 2.40): 939.79 a.u. | MST Replicates (a.u.) ([1]; mMF1, Log [ppGpp] 2.40): 938.92 a.u. | MST Average ([1]; mMF1, Log [ppGpp] 2.70): 942.02 a.u. | MST Average ([1]; mMF1, Log [ppGpp] -0.01): 1022.73 a.u. | MST Average ([1]; mMF1, Log [ppGpp] -0.31): 1023.54 a.u. | MST Average ([1]; mMF1, Log [ppGpp] -0.61): 1029.40 a.u. | IC50 ([1]; mRNA mInfA, read-out: IC50 Average): 29 µM | IC50 ([1]; mRNA mInfA, read-out: IC50 Replicates): 28.5 µM and 29 µM and 29.5 µM | IC50 ([1]; mRNA mMF1, read-out: IC50 Average): 8.64 µM | IC50 ([1]; mRNA mMF1, read-out: IC50 Replicates): 8.44 µM and 8.71 µM and 8.75 µM | IC50 ([1]; mRNA mTufA, read-out: IC50 Average): 131 µM | IC50 ([1]; mRNA mTufA, read-out: IC50 Replicates): 130 µM and 131 µM and 132 µM | MST Average ([1]; mTufA, Log [ppGpp] 0.29): 1135.97 a.u. | MST Average ([1]; mTufA, Log [ppGpp] 0.59): 1126.95 a.u. | MST Average ([1]; mTufA, Log [ppGpp] 0.89): 1118.40 a.u. | MST Average ([1]; mTufA, Log [ppGpp] 1.19): 1113.08 a.u. | MST Replicates (a.u.) ([1]; mTufA, Log [ppGpp] 1.19): 1112.21 a.u. and 1113.44 a.u. and 1113.60 a.u. | MST Average ([1]; mTufA, Log [ppGpp] 1.49): 1095.20 a.u. | MST Replicates (a.u.) ([1]; mTufA, Log [ppGpp] 1.49): 1094.85 a.u. and 1094.92 a.u. and 1095.85 a.u. | MST Average ([1]; mTufA, Log [ppGpp] 1.80): 1070.12 a.u. | MST Replicates (a.u.) ([1]; mTufA, Log [ppGpp] 1.80): 1069.34 a.u. and 1070.42 a.u. and 1070.61 a.u. | MST Average ([1]; mTufA, Log [ppGpp] 2.10): 1051.04 a.u. | MST Replicates (a.u.) ([1]; mTufA, Log [ppGpp] 2.10): 1050.31 a.u. and 1051.38 a.u. and 1051.44 a.u. | MST Average ([1]; mTufA, Log [ppGpp] 2.40): 1030.04 a.u. | MST Average ([1]; mTufA, Log [ppGpp] 2.70): 1004.77 a.u. | MST Average ([1]; mTufA, Log [ppGpp] -0.01): 1139.93 a.u. | MST Average ([1]; mTufA, Log [ppGpp] -0.31): 1146.28 a.u. | MST Average ([1]; mTufA, Log [ppGpp] -0.61): 1160.80 a.u. | IC50 ([1]; read-out: IC50 of 30S IC formation, mInfA, competition with 50 μM GTP): 29 ± 1 µM | IC50 ([1]; read-out: IC50 of 30S IC formation, mMF1, competition with 50 μM GTP): 8.6 ± 0.2 µM | IC50 ([1]; read-out: IC50 of 30S IC formation, mTufA with SRs I–III removed (+371)): 50 ± 5 µM | IC50 ([1]; read-out: IC50 of 30S IC formation, mTufA, competition with 50 μM GTP): 132 ± 1 µM | MST Average ([2]; IF2 0.08 µM): 943.56 a.u. | MST Replicates ([2]; IF2 0.08 µM): 950.05 a.u. and 945.75 a.u. and 934.87 a.u. | MST Average ([2]; IF2 0.16 µM): 943.40 a.u. | MST Replicates ([2]; IF2 0.16 µM): 949.30 a.u. and 935.29 a.u. and 945.62 a.u. | MST Average ([2]; IF2 0.31 µM): 945.38 a.u. | MST Replicates ([2]; IF2 0.31 µM): 948.56 a.u. and 936.80 a.u. and 950.79 a.u. | MST Average ([2]; IF2 0.63 µM): 945.13 a.u. | MST Replicates ([2]; IF2 0.63 µM): 936.31 a.u. and 947.81 a.u. and 951.27 a.u. | MST Average ([2]; IF2 1.25 µM): 946.96 a.u. | MST Replicates ([2]; IF2 1.25 µM): 952.23 a.u. and 948.54 a.u. and 940.12 a.u. | MST Average ([2]; IF2 2.50 µM): 951.73 a.u. | MST Replicates ([2]; IF2 2.50 µM): 945.20 a.u. and 956.43 a.u. and 953.55 a.u. | MST Average ([2]; IF2 5.00 µM): 958.05 a.u. | MST Replicates ([2]; IF2 5.00 µM): 952.00 a.u. and 959.98 a.u. and 962.17 a.u. | MST Average ([2]; IF2 10.00 µM): 963.39 a.u. | MST Replicates ([2]; IF2 10.00 µM): 958.44 a.u. and 964.79 a.u. and 966.94 a.u. | MST Average ([2]; IF2 20.00 µM): 974.27 a.u. | MST Replicates ([2]; IF2 20.00 µM): 972.33 a.u. and 976.56 a.u. and 973.92 a.u. | MST Average ([2]; IF2 40.00 µM): 980.83 a.u. | MST Replicates ([2]; IF2 40.00 µM): 982.65 a.u. and 981.22 a.u. and 978.62 a.u.
